This is an account of results in patent US12016858B2, “Methods for the treatment of abnormal involuntary movement disorders” (AUSPEX PHARMACEUTICALS, INC., priority 2015, dated 2024).

In data set [1] the test system is cardiac repolarization (QTcF interval). Kind of data set: TQT study, six-period crossover, placebo- and positive-controlled. The class given is in vivo, healthy volunteers. The method, then: Study Design. Given the known risk for tetrabenazine to increase the QT interval, a TQT study of deutetrabenazine, which included tetrabenazine as a treatment arm, was conducted in 48 healthy volunteers. This was a single-center, randomized, double-blind, placebo- and positive-controlled six-period crossover study to evaluate the effects of low-dose (12 mg) and high-dose (24 mg) deutetrabenazine on cardiac repolarization, based on placebo-corrected, time-matched changes from baseline in the QTcF interval. Assay sensitivity was established by using moxifloxacin 400 mg as the positive control.
The key outcome measure was to determine the effect of single doses of deutetrabenazine on the QTc interval.
In the table above, ΔΔQTcF is defined as the difference between the least squares mean change from baseline for the active drug and placebo. deutetrabenazine was compared with deutetrabenazine placebo (administered under fed conditions) and tetrabenazine was compared with tetrabenazine placebo (administered under fasted conditions). […] The upper limit of the 95% one-sided confidence interval is the upper limit of the 90% 2-sided confidence interval.

For a further data set, the system named is patients with HD. Particulars: cited from earlier work.
Data set [2] relates to patients with hyperkinetic movement disorders. The note with it: retrospective study of 98 patients; cited from earlier work.
Another data set relates to QTc interval. The note with it: 50 mg; 90% two-sided CI: 5.0, 10.4 ms; cited from earlier work.
The mark [3] stands for this setting: 12-week placebo-controlled study.

Molecules are shown by their SMILES.

Take `COc1c(N2C[C@@H]3CCCN[C@@H]3C2)c(F)cc2c(=O)c(C(=O)O)cn(C3CC3)c12` [Moxifloxacin, reference compound]: the “Maximum Placebo-Adjusted Change from Baseline in QTcF” value in data set [1] (400 mg, positive control) was 14.0 ms.

As for `COc1cc2c(cc1OC)C1CC(=O)C(CC(C)C)CN1CC2` (stereo not shown) [tetrabenazine, 1,3,4,6,7,11b-Hexahydro-9,10-dimethoxy-3-(2-methylpropyl)-2H-benzo[a]quinoline], the “Maximum Placebo-Adjusted Change from Baseline in QTcF” value in data set [1] (50 mg single dose, fasted) was found to be 7.6 ms. In data set [1] (in vivo), the “time point at which the maximal ΔΔQTcF was observed” value was determined as 3 h. In the data set with patients with HD (setting [3]), the “TMC score of the UHDRS” value is on record as “demonstrated to improve the TMC score” and the TMS entry was “failed to show statistically significant improvement in TMS”. Moreover, the “adverse events suggestive of parkinsonism” value with patients with HD (12-week randomized controlled trial) was 15%. In the data set with patients with HD (28 of 54 patients randomized), the “patients in whom dose escalation was discontinued or dosage reduced due to adverse events” value is 52%. Further, in the data set on patients with HD (N = 54), the “Adverse reaction Akathisia” value is 10 (19) n (%), the “Adverse reaction Anxiety/anxiety aggravated” value was 8 (15) n (%), the “Adverse reaction Appetite decreased” value is listed as 2 (4) n (%) and the “Adverse reaction Balance difficulty” value is 5 (9) n (%). Also, in the data set with patients with HD (N = 54), the “Adverse reaction Bronchitis” value is 2 (4) n (%), the “Adverse reaction Depression” value is reported as 10 (19) n (%), the “Adverse reaction Dizziness” value is 2 (4) n (%) and the “Adverse reaction Dysarthria” value is 2 (4) n (%). In addition, in the data set with patients with HD (N = 54), the “Adverse reaction Dysuria” value was 2 (4) n (%), the “Adverse reaction Ecchymosis” value is reported as 3 (6) n (%), the “Adverse reaction Fall” value is 8 (15) n (%) and the “Adverse reaction Fatigue” value is recorded as 12 (22) n (%). Besides, in the data set with patients with HD (N = 54), the “Adverse reaction Gait unsteady” value was 2 (4) n (%), the “Adverse reaction Headache” value is 2 (4) n (%), the “Adverse reaction Insomnia” value is given as 12 (22) n (%) and the “Adverse reaction Irritability” value is recorded as 5 (9) n (%). Further, in the data set with patients with HD (N = 54), the “Adverse reaction Laceration (head)” value was 3 (6) n (%), the “Adverse reaction Nausea” value is listed as 7 (13) n (%), the “Adverse reaction Obsessive reaction” value is recorded as 2 (4) n (%) and the “Adverse reaction Parkinsonism/bradykinesia” value is 5 (9) n (%). In the data set on patients with HD (N = 54), the “Adverse reaction Sedation/somnolence” value is given as 17 (31) n (%), the “Adverse reaction Shortness of breath” value is given as 2 (4) n (%), the “Adverse reaction Upper respiratory tract infection” value is 6 (11) n (%) and the “Adverse reaction Vomiting” value is recorded as 3 (6) n (%). Moreover, the “boxed warning: depression and suicidality in patients with HD” value in the data set with patients with HD (prescribing information) was “increases the risk of depression and suicidal thoughts and behavior (suicidality)”. The “dysphagia observed in patients” value in data set [2] is recorded as 19%. In the data set on QTc interval, the “mean increase in QTc interval” value is “approximately 8 ms”.
